Reference: paper PMC5201133 (Journal of medicinal chemistry, 2016)
Entries after “also recorded” stand apart in the source; their conditions may differ. Read-outs that look alike come from different tables or passages of the source. Marks after values point to notes of the source that are not given here.

Key:
[1] = molecular target: A2AAR; conditions: rat (r), archival data ref 22, 24–27, cited from earlier work
[2] = molecular target: A1AR; conditions: read-out: A1AR Ki; rat (r); archival data ref 22, 24–27; cited from earlier work
[3] = molecular target: A3AR; conditions: read-out: A3AR Ki; rat (r); archival data ref 22, 24–27; cited from earlier work
[4] = molecular target: T1, A3AR (Homo sapiens, UniProt P0DMS8); conditions: read-out: A3AR Ki, archival data ref 22, 24–27; cited from earlier work
T1 sequence (P0DMS8 1-318): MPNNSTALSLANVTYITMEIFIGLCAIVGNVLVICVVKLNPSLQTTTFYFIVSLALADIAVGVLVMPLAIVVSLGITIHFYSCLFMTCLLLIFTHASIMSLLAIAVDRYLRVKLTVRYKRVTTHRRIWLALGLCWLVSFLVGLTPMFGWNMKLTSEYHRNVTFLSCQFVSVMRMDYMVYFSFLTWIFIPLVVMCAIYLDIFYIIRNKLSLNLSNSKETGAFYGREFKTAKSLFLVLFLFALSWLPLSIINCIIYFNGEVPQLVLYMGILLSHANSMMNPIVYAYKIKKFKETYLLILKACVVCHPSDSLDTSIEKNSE

[5] = molecular target: T2, 5HT2CR (Homo sapiens, UniProt P28335); assay: 5HT2CR functional calcium mobilization assay; format: cell-based; conditions: 10 µM; result in words
T2 sequence (P28335 33-458): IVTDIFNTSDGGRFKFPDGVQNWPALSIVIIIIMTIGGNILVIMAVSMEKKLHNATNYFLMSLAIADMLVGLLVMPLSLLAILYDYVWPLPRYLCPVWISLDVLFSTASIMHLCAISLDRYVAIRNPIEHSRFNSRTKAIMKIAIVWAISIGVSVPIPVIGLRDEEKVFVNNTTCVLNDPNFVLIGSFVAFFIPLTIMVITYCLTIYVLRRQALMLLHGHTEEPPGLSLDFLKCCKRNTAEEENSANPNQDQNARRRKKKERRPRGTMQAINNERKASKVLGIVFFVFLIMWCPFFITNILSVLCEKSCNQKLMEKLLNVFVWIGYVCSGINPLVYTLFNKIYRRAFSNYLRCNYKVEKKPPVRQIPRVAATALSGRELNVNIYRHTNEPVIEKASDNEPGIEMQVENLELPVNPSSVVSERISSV

[6] = molecular target: T3, 5HT2AR (Homo sapiens, UniProt P28223); assay: 5HT2AR functional calcium mobilization assay; format: cell-based; conditions: 10 µM; result in words
T3 sequence (P28223 whole entry): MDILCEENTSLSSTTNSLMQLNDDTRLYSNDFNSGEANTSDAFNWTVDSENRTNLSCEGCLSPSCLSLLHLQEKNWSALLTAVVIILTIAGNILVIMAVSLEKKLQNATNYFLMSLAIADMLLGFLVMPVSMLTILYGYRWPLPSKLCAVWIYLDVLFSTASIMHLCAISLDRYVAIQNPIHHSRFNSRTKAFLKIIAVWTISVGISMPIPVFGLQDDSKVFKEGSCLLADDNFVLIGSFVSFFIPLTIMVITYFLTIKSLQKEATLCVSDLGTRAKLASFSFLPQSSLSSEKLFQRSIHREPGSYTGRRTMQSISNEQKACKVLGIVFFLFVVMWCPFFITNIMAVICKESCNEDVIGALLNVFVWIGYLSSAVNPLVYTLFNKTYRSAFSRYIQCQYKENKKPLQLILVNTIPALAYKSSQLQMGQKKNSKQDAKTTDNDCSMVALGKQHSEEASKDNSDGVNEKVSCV

[7] = Stability in human plasma; format: in vitro ADME; conditions: for remaining at 2 h: human, plasma, Stability in plasma, % remaining at 120 min
[8] = molecular target: T4, 5HT2BR (Homo sapiens, UniProt P41595); format: cell-based
T4 sequence (P41595 whole entry): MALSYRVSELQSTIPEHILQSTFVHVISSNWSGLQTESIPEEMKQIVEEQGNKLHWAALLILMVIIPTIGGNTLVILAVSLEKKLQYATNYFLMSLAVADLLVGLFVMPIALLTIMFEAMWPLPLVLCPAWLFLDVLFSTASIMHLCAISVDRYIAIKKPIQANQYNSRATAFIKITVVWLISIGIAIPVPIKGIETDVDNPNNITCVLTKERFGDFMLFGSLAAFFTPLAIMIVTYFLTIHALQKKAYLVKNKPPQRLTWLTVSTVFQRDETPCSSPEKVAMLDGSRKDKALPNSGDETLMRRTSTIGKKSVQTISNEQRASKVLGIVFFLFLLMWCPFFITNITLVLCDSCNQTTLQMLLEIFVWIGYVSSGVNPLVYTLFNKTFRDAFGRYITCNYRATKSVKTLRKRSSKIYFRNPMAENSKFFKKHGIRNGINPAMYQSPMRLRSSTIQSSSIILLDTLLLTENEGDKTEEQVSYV

[9] = test system: 5 CYP isozymes (A2, 2C9, 2C19, 2D6, 3A4); assay: Inhibition of 5 CYP isozymes; format: in vitro ADME; conditions: human
[10] = CACO cell permeability; format: in vitro ADME; conditions: human
[11] = Cytotoxicity in HepG2 cells; format: cell-based; conditions: human
[12] = test system: CACO-2 cells; assay: CACO cell permeability; format: in vitro ADME; conditions: CACO-2 cells
[13] = molecular target: T4, 5HT2BR; format: binding
[14] = molecular target: T1, A3AR; assay: A3AR binding, [125I]46
[15] = molecular target: human 5HT5AR (Homo sapiens, UniProt P47898); assay: 5HT5AR binding; conditions: result in words
Chain of human 5HT5AR (P47898 whole entry): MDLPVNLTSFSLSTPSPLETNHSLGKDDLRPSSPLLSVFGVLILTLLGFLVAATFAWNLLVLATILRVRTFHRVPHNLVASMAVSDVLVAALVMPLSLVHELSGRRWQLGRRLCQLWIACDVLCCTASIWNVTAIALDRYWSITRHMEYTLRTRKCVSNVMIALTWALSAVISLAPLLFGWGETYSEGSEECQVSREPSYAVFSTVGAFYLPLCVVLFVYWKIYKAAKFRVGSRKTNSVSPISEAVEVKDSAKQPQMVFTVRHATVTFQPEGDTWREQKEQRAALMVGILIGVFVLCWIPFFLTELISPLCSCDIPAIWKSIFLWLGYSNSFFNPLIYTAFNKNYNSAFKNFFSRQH

[16] = molecular target: T2, 5HT2CR; assay: 5HT2CR radioligand binding, [3H]mesulergine 44, Flp IN HEK cell membranes; conditions: 5HT2CR Ki, mean ± SEM; ^d n = 1
[17] = molecular target: hA2AAR (Homo sapiens, UniProt P29274); assay: A2AAR binding, [3H]47, HEK293 cell membranes; conditions: read-out: A2AAR % inhibition
Chain of hA2AAR (P29274 whole entry): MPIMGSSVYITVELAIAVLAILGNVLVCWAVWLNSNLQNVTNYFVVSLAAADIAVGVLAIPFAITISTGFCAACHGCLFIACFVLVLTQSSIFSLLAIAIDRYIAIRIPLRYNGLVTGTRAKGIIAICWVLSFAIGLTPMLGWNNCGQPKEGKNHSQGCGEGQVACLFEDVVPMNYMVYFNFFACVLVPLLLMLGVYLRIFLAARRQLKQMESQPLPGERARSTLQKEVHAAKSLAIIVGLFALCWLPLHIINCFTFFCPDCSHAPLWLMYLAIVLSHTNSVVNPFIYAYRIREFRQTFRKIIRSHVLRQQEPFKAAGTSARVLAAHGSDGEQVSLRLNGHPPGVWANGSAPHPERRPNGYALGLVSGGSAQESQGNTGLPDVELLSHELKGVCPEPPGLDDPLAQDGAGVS

[18] = molecular target: T5, A1AR (Homo sapiens, UniProt P30542); assay: A1AR binding, [3H]N6-phenylisopropyladenosine 45
T5 sequence (P30542 1-326): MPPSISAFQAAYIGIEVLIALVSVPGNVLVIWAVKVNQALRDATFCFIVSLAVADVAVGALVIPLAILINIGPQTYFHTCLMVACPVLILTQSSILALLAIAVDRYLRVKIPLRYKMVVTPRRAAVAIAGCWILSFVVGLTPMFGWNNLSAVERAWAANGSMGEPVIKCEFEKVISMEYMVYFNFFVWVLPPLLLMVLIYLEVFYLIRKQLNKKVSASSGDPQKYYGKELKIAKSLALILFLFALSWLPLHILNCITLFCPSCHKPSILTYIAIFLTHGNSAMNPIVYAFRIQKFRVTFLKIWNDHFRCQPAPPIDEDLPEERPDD

[19] = molecular target: T3, 5HT2AR; assay: 5HT2AR radioligand binding, [3H]ketanserin, HEKT cell membranes; conditions: read-out: 5HT2AR % inhibition
[20] = molecular target: T3, 5HT2AR; conditions: inhibition of binding at 10 µM; archival data ref 9, 22, 24–27; cited from earlier work
[21] = molecular target: T2, 5HT2CR; conditions: read-out: 5HT2CR Ki; archival data ref 8, 9, 22, 24–27; cited from earlier work

For `OC[C@H]1O[C@@H](n2cnc3c(NC(C4CC4)C4CC4)ncnc32)[C@H](O)[C@@H]1O` [compound 6], the Ki ([1]; read-out: A2AAR Ki) is listed as 1370 nM.

For `CNC(=O)[C@H]1O[C@@H](n2cnc3c(N)ncnc32)[C@H](O)[C@@H]1O` [compound 7, reference compound], the Ki [2] is listed as 84 nM.

In the case of `Nc1nc(Cl)nc2c1ncn2[C@H]1[C@H](O)[C@H](O)[C@]2(CO)C[C@H]12` [compound 12], the Ki [2] is given as 273 nM and the Ki [3] is given as 85 nM.

In the case of `CNc1nc(Cl)nc2c1ncn2[C@H]1[C@H](O)[C@H](O)[C@]2(CO)C[C@H]12` [compound 13], the Ki [2] is given as 1470 nM, the A2AAR % inhibition ([1]; inhibition of binding at 10 µM) is given as <10% (r) ^c and the Ki [4] is given as 23 nM.

In the case of `OC[C@@]12C[C@@H]1[C@@H](n1cnc3c(NC(C4CC4)C4CC4)nc(Cl)nc31)[C@H](O)[C@@H]2O` [compound 14, (1R,2R,3S,4R,5S)-4-(2-Chloro-6-((dicyclopropylmethyl)amino)-9H-purin-9-yl)-1-(hydroxymethyl)bicyclo[3.1.0]hexane-2,3-diol], the “agonist activity at 5HT2CR” value [5] is reported as “no appreciable agonist or partial agonist activity” and the “agonist or antagonist activity at 5HT2AR” value [6] is reported as “no activity as agonist or antagonist”.

For `CNC(=O)[C@@]12C[C@@H]1[C@@H](n1cnc3c(NC(C4CC4)C4CC4)nc(Cl)nc31)[C@H](O)[C@@H]2O` [compound 23, (1S,2R,3S,4R,5S)-4-(2-Chloro-6-((dicyclopropylmethyl)amino)-9H-purin-9-yl)-2,3-dihydroxy-N-methylbicyclo[3.1.0]hexane-1-carboxamide], the “Stability in plasma, % remaining at 120 min, Human” value [7] was 104%, the remaining at 2 h [7] was about 100% and the “agonist activity at 5HT2BR” value [8] was “no appreciable agonist or partial agonist activity”. The IC50 [9] was over 30000 nM, the “agonist activity at 5HT2CR” value [5] was “no appreciable agonist or partial agonist activity” and the Papp B→A ([10]; Caco-2) was 46.2 ×10⁻⁶ cm/s. For the same compound, the Papp A→B ([10]; Caco-2, Papp, A->B, CACO-2 cells) was 4.73 ×10⁻⁶ cm/s, the CC50 [11] was over 30000 nM and the “agonist or antagonist activity at 5HT2AR” value [6] was “no activity as agonist or antagonist”.

In the case of `COC(=O)[C@@]12C[C@@H]1[C@@H](n1cnc3c(NC(C4CC4)C4CC4)nc(Cl)nc31)[C@H](O)[C@@H]2O` [compound 25, Methyl (1S,2R,3S,4R,5S)-4-(2-Chloro-6-((dicyclopropylmethyl)amino)-9H-purin-9-yl)-2,3-dihydroxybicyclo[3.1.0]hexane-1-carboxylate], the “Stability in plasma, % remaining at 120 min, Human” value [7] is reported as 95.3%, the remaining at 2 h [7] is reported as about 100% and the “agonist activity at 5HT2BR” value ([8]; 10 µM, result in words) is reported as “no appreciable agonist or partial agonist activity”. The IC50 [9] was at least 20000 nM, the “agonist activity at 5HT2CR” value [5] was “no appreciable agonist or partial agonist activity” and the “Papp, A->B” value [12] was 18.47 10^−6 cm/sec. For the same compound, the CC50 [11] was over 30000 nM, the “agonist or antagonist activity at 5HT2AR” value [6] was “no activity as agonist or antagonist” and the “ligand efficiency (LE) in 5HT2BR binding” value [13] was 0.37.

In the case of `CCOC(=O)[C@@]12C[C@@H]1[C@@H](n1cnc3c(NC(C4CC4)C4CC4)nc(Cl)nc31)[C@H](O)[C@@H]2O` [compound 26, Ethyl (1S,2R,3S,4R,5S)-4-(2-chloro-6-((dicyclopropylmethyl)amino)-9H-purin-9-yl)-2,3-dihydroxybicyclo[3.1.0]hexane-1-carboxylate], the “agonist activity at 5HT2BR” value [8] is reported as “did not display significant; also recorded: no appreciable agonist or partial agonist activity”, the “agonist activity at 5HT2CR” value [5] is reported as “did not display significant; also recorded: no appreciable agonist or partial agonist activity” and the “agonist or antagonist activity at 5HT2AR” value [6] is reported as “did not display significant agonist or antagonist activity; also recorded: no activity as agonist or antagonist”.

In the case of `CCOC(=O)[C@@]12C[C@@H]1[C@@H](n1cnc3c(N(C)C)nc(Cl)nc31)[C@H](O)[C@@H]2O` [compound 29, Ethyl (1S,2R,3S,4R,5S)-4-(2-chloro-6-(dimethylamino)-9H-purin-9-yl)-2,3-dihydroxybicyclo[3.1.0]hexane-1-carboxylate], the “affinity at the A3AR” value ([14]; result in words) is reported as “no measurable affinity”.

With `CN(C)c1nc(Cl)nc2c1ncn2[C@H]1[C@H](O)[C@H](O)[C@]2(C(=O)O)C[C@H]12` [compound 30, (1S,2R,3S,4R,5S)-4-(2-Chloro-6-(dimethylamino)-9H-purin-9-yl)-2,3-dihydroxybicyclo [3.1.0]hexane-1-carboxylic acid] the “binding at the human 5HT5AR” value [15] was “bound weakly”.

With `NCCNC(=O)[C@@]12C[C@@H]1[C@@H](n1cnc3c(NC(C4CC4)C4CC4)nc(Cl)nc31)[C@H](O)[C@@H]2O` [compound 31, (1S,2R,3S,4R,5S)-N-(2-Aminoethyl)-4-(2-chloro-6-((dicyclopropylmethyl)amino)-9H-purin-9-yl)-2,3-dihydroxybicyclo[3.1.0]hexane-1-carboxamide] the Ki [14] was 8110 ± 1270 nM, the Ki [16] was 142 ± 1 nM and the inhibition at 10 µM [17] was 23 ± 5%. For the same compound, the Ki [18] was 2580 ± 1220 nM, the inhibition at 10 µM [19] was under 10% and the Ki [13] was 630 ± 146 nM.

For `NCCCNC(=O)[C@@]12C[C@@H]1[C@@H](n1cnc3c(NC(C4CC4)C4CC4)nc(Cl)nc31)[C@H](O)[C@@H]2O` [compound 32, (1S,2R,3S,4R,5S)-N-(3-Aminopropyl)-4-(2-chloro-6-((dicyclopropylmethyl)amino)-9H-purin-9-yl)-2,3-dihydroxybicyclo[3.1.0]hexane-1-carboxamide], the inhibition at 10 µM ([14]; read-out: A3AR % inhibition) was 55 ± 1%, the Ki [16] was 137 ± 19 nM and the inhibition at 10 µM [17] was 26 ± 5%. For the same compound, the inhibition at 10 µM ([18]; read-out: A1AR % inhibition) was 45 ± 4%, the inhibition at 10 µM [19] was under 10% and the Ki [13] was 1120 ± 310 nM.

In the case of `CNC(=O)[C@@]12C[C@@H]1[C@@H](n1cnc3c(NCc4cccc(Cl)c4)nc(Cl)nc31)[C@H](O)[C@@H]2O` [compound 35], the 5HT2AR % inhibition [20] is given as 35% and the Ki [21] is given as 168 ± 47 nM.

With `CNC(=O)[C@@]12C[C@@H]1[C@@H](n1cnc3c(N(C)C)nc(C#Cc4ccc(Cl)s4)nc31)[C@H](O)[C@@H]2O` [compound 42] the “reduction of A3AR affinity” value ([14]; 39 vs. 42) was 34 fold.
